Source: PubChem BioAssay (NCI)
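Method: 48-hour compound exposure of cells in 96-well plates, five concentrations, linear interpolation of endpoints. Definition used: TGI = concentration required for complete inhibition of growth.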

Experiments:
Test in all cases: growth of human tumour cells (NCI), 48 h
786-0 renal = test system: 786-0 renal
A498 renal = test system: A498 renal
A549 NSCLC = test system: A549 NSCLC
ACHN renal = test system: ACHN renal
BT-549 breast = test system: BT-549 breast
CAKI-1 renal = test system: CAKI-1 renal
CCRF-CEM leukemia = test system: CCRF-CEM leukemia
COLO 205 colon = test system: COLO 205 colon
DU-145 prostate = test system: DU-145 prostate
EKVX NSCLC = test system: EKVX NSCLC
HCC-2998 colon = test system: HCC-2998 colon
HCT-116 colon = test system: HCT-116 colon
HCT-15 colon = test system: HCT-15 colon
HL-60(TB) leukemia = test system: HL-60(TB) leukemia
HOP-62 NSCLC = test system: HOP-62 NSCLC
HOP-92 NSCLC = test system: HOP-92 NSCLC
HS 578T breast = test system: HS 578T breast
HT29 colon = test system: HT29 colon
IGROV1 ovarian = test system: IGROV1 ovarian
K-562 leukemia = test system: K-562 leukemia
KM12 colon = test system: KM12 colon
LOX IMVI melanoma = test system: LOX IMVI melanoma
M14 melanoma = test system: M14 melanoma
MALME-3M melanoma = test system: MALME-3M melanoma
MCF7 breast = test system: MCF7 breast
MDA-MB-231 breast = test system: MDA-MB-231 breast
MDA-MB-435 = test system: MDA-MB-435
MDA-N = test system: MDA-N
MOLT-4 leukemia = test system: MOLT-4 leukemia
NCI-H226 lung = test system: NCI-H226 lung
NCI-H23 lung = test system: NCI-H23 lung
NCI-H460 lung = test system: NCI-H460 lung
NCI-H522 lung = test system: NCI-H522 lung
NCI/ADR-RES ovarian = test system: NCI/ADR-RES ovarian
OVCAR-3 ovarian = test system: OVCAR-3 ovarian
OVCAR-4 ovarian = test system: OVCAR-4 ovarian
OVCAR-5 ovarian = test system: OVCAR-5 ovarian
OVCAR-8 ovarian = test system: OVCAR-8 ovarian
PC-3 prostate = test system: PC-3 prostate
RPMI-8226 leukemia = test system: RPMI-8226 leukemia
RXF 393 renal = test system: RXF 393 renal
SF-268 CNS = test system: SF-268 CNS
SF-295 CNS = test system: SF-295 CNS
SF-539 CNS = test system: SF-539 CNS
SK-MEL-2 melanoma = test system: SK-MEL-2 melanoma
SK-MEL-28 melanoma = test system: SK-MEL-28 melanoma
SK-MEL-5 melanoma = test system: SK-MEL-5 melanoma
SK-OV-3 ovarian = test system: SK-OV-3 ovarian
SN12C renal = test system: SN12C renal
SNB-19 CNS = test system: SNB-19 CNS
SNB-75 CNS = test system: SNB-75 CNS
SR leukemia = test system: SR leukemia
SW-620 colon = test system: SW-620 colon
T-47D breast = test system: T-47D breast
TK-10 renal = test system: TK-10 renal
U251 CNS = test system: U251 CNS
UACC-257 melanoma = test system: UACC-257 melanoma
UACC-62 melanoma = test system: UACC-62 melanoma
UO-31 renal = test system: UO-31 renal

Structure (SMILES): O=[N+]([O-])c1cccc2nc3ccccc3c(NCCC[N+]3([O-])CCOCC3)c12
- TGI (786-0 renal): 729 nM
- TGI (A498 renal): 422 nM
- TGI (A549 NSCLC): 871 nM
- TGI (ACHN renal): 3.81 µM
- TGI (BT-549 breast): 1.4 µM
- TGI (CAKI-1 renal): 12.1 µM
- TGI (CCRF-CEM leukemia): 583 nM
- TGI (COLO 205 colon): 240 nM
- TGI (DU-145 prostate): 868 nM
- TGI (EKVX NSCLC): 2010 nM
- TGI (HCC-2998 colon): 39.3 nM
- TGI (HCT-116 colon): 533 nM
- TGI (HCT-15 colon): 6.42 µM
- TGI (HL-60(TB) leukemia): 1.02 µM
- TGI (HOP-62 NSCLC): 689 nM
- TGI (HOP-92 NSCLC): 290 nM
- TGI (HS 578T breast): > 100 µM
- TGI (HT29 colon): 761 nM
- TGI (IGROV1 ovarian): 608 nM
- TGI (K-562 leukemia): > 100 µM
- TGI (KM12 colon): 538 nM
- TGI (LOX IMVI melanoma): 1620 nM
- TGI (M14 melanoma): 921 nM
- TGI (MALME-3M melanoma): 347 nM
- TGI (MCF7 breast): 725 nM
- TGI (MDA-MB-231 breast): 948 nM
- TGI (MDA-MB-435): 331 nM
- TGI (MDA-N): 277 nM
- TGI (MOLT-4 leukemia): > 100 µM
- TGI (NCI-H226 lung): 529 nM
- TGI (NCI-H23 lung): 316 nM
- TGI (NCI-H460 lung): 462 nM
- TGI (NCI-H522 lung): 462 nM
- TGI (NCI/ADR-RES ovarian): 39.2 µM
- TGI (OVCAR-3 ovarian): 474 nM
- TGI (OVCAR-4 ovarian): 455 nM
- TGI (OVCAR-5 ovarian): 1500 nM
- TGI (OVCAR-8 ovarian): 3.44 µM
- TGI (PC-3 prostate): 2220 nM
- TGI (RPMI-8226 leukemia): 4.69 µM
- TGI (RXF 393 renal): 366 nM
- TGI (SF-268 CNS): 1910 nM
- TGI (SF-295 CNS): 1380 nM
- TGI (SF-539 CNS): 1300 nM
- TGI (SK-MEL-2 melanoma): 375 nM
- TGI (SK-MEL-28 melanoma): 984 nM
- TGI (SK-MEL-5 melanoma): 241 nM
- TGI (SK-OV-3 ovarian): 1530 nM
- TGI (SN12C renal): 993 nM
- TGI (SNB-19 CNS): 2800 nM
- TGI (SNB-75 CNS): 683 nM
- TGI (SR leukemia): > 40.8 µM
- TGI (SW-620 colon): 1600 nM
- TGI (T-47D breast): 919 nM
- TGI (TK-10 renal): 3.33 µM
- TGI (U251 CNS): 964 nM
- TGI (UACC-257 melanoma): 1290 nM
- TGI (UACC-62 melanoma): 319 nM
- TGI (UO-31 renal): 4.59 µM

Structure (SMILES): O=c1oc2cc(O)ccc2c(O)c1C(c1ccccc1F)c1c(O)c2ccc(O)cc2oc1=O
- TGI (786-0 renal): > 100000 nM
- TGI (A498 renal): > 100000 nM
- TGI (A549 NSCLC): > 100000 nM
- TGI (ACHN renal): > 100 µM
- TGI (BT-549 breast): 48.4 µM
- TGI (CAKI-1 renal): > 100 µM
- TGI (COLO 205 colon): > 100000 nM
- TGI (DU-145 prostate): > 100000 nM
- TGI (EKVX NSCLC): > 100000 nM
- TGI (HCC-2998 colon): > 100000 nM
- TGI (HCT-116 colon): > 100000 nM
- TGI (HCT-15 colon): > 100 µM
- TGI (HL-60(TB) leukemia): 43.7 µM
- TGI (HOP-62 NSCLC): > 100000 nM
- TGI (HOP-92 NSCLC): > 100000 nM
- TGI (HS 578T breast): > 100 µM
- TGI (HT29 colon): > 100000 nM
- TGI (IGROV1 ovarian): > 100000 nM
- TGI (K-562 leukemia): 69 µM
- TGI (KM12 colon): > 100000 nM
- TGI (LOX IMVI melanoma): > 100000 nM
- TGI (M14 melanoma): > 100000 nM
- TGI (MCF7 breast): > 100000 nM
- TGI (MDA-MB-231 breast): > 100000 nM
- TGI (MDA-MB-435): > 100000 nM
- TGI (MDA-N): > 100000 nM
- TGI (MOLT-4 leukemia): > 100 µM
- TGI (NCI-H226 lung): > 100000 nM
- TGI (NCI-H23 lung): > 100000 nM
- TGI (NCI-H460 lung): > 100000 nM
- TGI (NCI-H522 lung): > 100000 nM
- TGI (NCI/ADR-RES ovarian): > 100 µM
- TGI (OVCAR-3 ovarian): > 100000 nM
- TGI (OVCAR-5 ovarian): > 100000 nM
- TGI (OVCAR-8 ovarian): > 100 µM
- TGI (PC-3 prostate): > 100000 nM
- TGI (RPMI-8226 leukemia): 83.4 µM
- TGI (RXF 393 renal): > 100000 nM
- TGI (SF-268 CNS): > 100000 nM
- TGI (SF-295 CNS): > 100000 nM
- TGI (SF-539 CNS): > 100000 nM
- TGI (SK-MEL-2 melanoma): > 100000 nM
- TGI (SK-MEL-28 melanoma): > 100000 nM
- TGI (SK-MEL-5 melanoma): > 100000 nM
- TGI (SK-OV-3 ovarian): > 100000 nM
- TGI (SN12C renal): > 100000 nM
- TGI (SNB-19 CNS): > 100000 nM
- TGI (SNB-75 CNS): > 100000 nM
- TGI (SR leukemia): > 100 µM
- TGI (SW-620 colon): > 100000 nM
- TGI (T-47D breast): > 100000 nM
- TGI (TK-10 renal): > 100 µM
- TGI (U251 CNS): > 100000 nM
- TGI (UACC-257 melanoma): > 100000 nM
- TGI (UACC-62 melanoma): > 100000 nM
- TGI (UO-31 renal): > 100 µM
